Assay [1] deals with Plasmodium falciparum. The assay is described as follows: ST_JUDE: Plasmodium falciparum K1 EC50 (uM) as measured by SYBR green dye. The format is functional, organism-based.
Assay [2] concerns Plasmodium falciparum. Kind of assay: ST_JUDE: Plasmodium falciparum 3D7 EC50 (uM) as measured by SYBR green dye. In kind it is functional, organism-based.

Each structure is given as a SMILES string.

Usually EC50 stands for the concentration that produces a half-maximal response. Low readings indicate higher potency in that assay, high ones lower potency in that assay. Turning to `CCOc1cc2c(cc1OCC)C(c1cc(Cl)c(O)c(OCC)c1)NCC2` (centres undefined), the EC50 in the assay with Plasmodium falciparum [1] is 1.76 µM; in the assay on Plasmodium falciparum [2], 3.01 µM.
The like results for `CCCCN(C)Cc1c(O)ccc2c(=O)c(Oc3ccccc3OCC)c(C(F)(F)F)oc12` were, in that order, 1.47 µM and 2 µM.
With `CCC[N+]1(C)CCC2C(C1)c1ccccc1N2Cc1ccccc1` (centres undefined), the results for the EC50 in the assay on Plasmodium falciparum [1] and with Plasmodium falciparum [2] were above 15 µM and 4.25 µM, respectively.
The like results for `Cc1ccc(/C(O)=C/C=N/c2cc([N+](=O)[O-])ccc2O)cc1` were, in that order, 1.69 µM and above 15 µM.
For `CCCN1CCC(N2CCCC(C(=O)c3ccc4cc(OC)ccc4c3)C2)CC1` (centres undefined), in that order: above 15 µM and 5 µM.
The like results for `COc1ccc(C2C(C(=O)OC(C)C)=C(C)N=c3s/c(=C\c4cc(Cl)ccc4O)c(=O)n32)cc1` (centres undefined) were, in that order, 0.331 µM and 7 µM.
Consider `CCC(=O)NC(c1ccc(N(C)C)cc1)c1ccc2cccnc2c1O` (centres undefined), for which the figures for the EC50 in the assay on Plasmodium falciparum [1] and in the assay with Plasmodium falciparum [2] were 4.44 µM and 4.07 µM, respectively.
As to `CN(C)c1ccc(C(O)(c2ccc(N(C)C)cc2)c2ccc(N(C)C)cc2)cc1` [METHYLROSANILINE], the EC50 with Plasmodium falciparum [1] amounted to 0.178 µM; with Plasmodium falciparum [2], 0.62 µM.
The like results for `Cc1ccc2ccc(C(Nc3ccccn3)c3ccncc3)c(O)c2n1` (centres undefined) were, in that order, above 15 µM and 6.5 µM.
The like results for `CCN1C=CC=C/C1=C/c1ccc2cc(C)ccc2[n+]1CC` were, in that order, 0.453 µM and 0.543 µM.
Turning to `CCN(CC)CCNc1nc(Nc2cccc(OC)c2)c2cnn(-c3ccccc3)c2n1`, the EC50 with Plasmodium falciparum [1] was 2.96 µM; in the assay with Plasmodium falciparum [2] it was 0.458 µM.
The like results for `Cc1cccc(NC(c2ccc(Cl)cc2)c2ccc3cccnc3c2O)n1` (centres undefined) were, in that order, 3.14 µM and 3.54 µM.
As to `OC(CNCc1ccccc1)Cn1c2ccccc2c2ccccc21` (centres undefined), the values for the EC50 in the assay on Plasmodium falciparum [1] and in the assay on Plasmodium falciparum [2] were 0.81 µM and 3.76 µM, respectively.
The like results for `CCN(CC)CCN1C(=O)c2oc3ccccc3c(=O)c2C1c1cccc(OC)c1` (centres undefined) were, in that order, 1.05 µM and 0.995 µM.
Consider `CCCCCCCCn1ccc(=N)cc1`, for which the EC50 with Plasmodium falciparum [1] was found to be 1.41 µM; in the assay on Plasmodium falciparum [2], 2.18 µM.
For `O=C(Nc1ccc(F)cc1)C1c2ccccc2C(=O)N(C2CCCC2)C1c1cccs1` (centres undefined), in that order: 0.975 µM and 0.808 µM.
For `CCc1ccc(OCC2c3cc(OC)c(OC)cc3CCN2C(=O)COc2ccccc2)cc1` (centres undefined), in that order: above 15 µM and above 15 µM.
For `COC(=O)CNC(c1ccccc1)c1cc(Br)ccc1NC(=O)c1ccccc1` (centres undefined), in that order: 6.06 µM and 6.83 µM.
Turning to `CCC(C)NC(=O)N1CCC(n2nccc2NC(=O)CCCc2ccccc2)CC1` (centres undefined), the EC50 in the assay on Plasmodium falciparum [1] and with Plasmodium falciparum [2] was above 15 µM in each case.
Consider `COc1ccc(N2CCN(CC(O)COc3ccc(C)cc3C(C)(C)C)CC2)cc1` (centres undefined), for which the EC50 with Plasmodium falciparum [1] and in the assay on Plasmodium falciparum [2] was above 15 µM throughout.
As for `C=CC[n+]1c(C=C2C=CC=CN2C)sc2ccccc21`, the EC50 turned out to be 0.879 µM with Plasmodium falciparum [1] and 1.52 µM in the assay with Plasmodium falciparum [2].
Take `COc1ccc2nc(N(Cc3cccnc3)C(=O)C3CCCCC3)sc2c1`: the figures for the EC50 in the assay on Plasmodium falciparum [1] and in the assay on Plasmodium falciparum [2] were 2.65 µM and 3.51 µM, respectively.
The like results for `Cc1cc(C)c2nc(NNC(=O)c3ccc(S(=O)(=O)N(C)C)cc3)sc2c1` were, in that order, 4.88 µM and 6.63 µM.
Consider `CN(C)CCNc1c2c(nc3ccccc13)CCC2`, for which the EC50 in the assay with Plasmodium falciparum [1] is above 15 µM; with Plasmodium falciparum [2], 3.96 µM.
Consider `O=C(Cc1ccc(Cl)cc1)Nc1cc(C(F)(F)F)cc(C(F)(F)F)c1`, for which the EC50 with Plasmodium falciparum [1] was 5.13 µM; in the assay with Plasmodium falciparum [2], above 15 µM.
Take `CC1=C/C(=N\OC(=O)c2ccc(Br)cc2)C=CC1=O`: the EC50 with Plasmodium falciparum [1] and with Plasmodium falciparum [2] was above 15 µM each time.
In the case of `CCc1cc(-c2[nH]nc(C)c2Oc2ccc(Cl)cc2)c(O)cc1OC`, the EC50 with Plasmodium falciparum [1] was 3.2 µM; in the assay with Plasmodium falciparum [2], 4.85 µM.
For `COc1ccc2sc(N(Cc3cccnc3)C(=O)c3ccc(F)cc3)nc2c1`, the EC50 in the assay with Plasmodium falciparum [1] was 1.49 µM; in the assay on Plasmodium falciparum [2], above 15 µM.
For `O=[N+]([O-])c1ccccc1C(Nc1ccccn1)c1cc(Cl)c2cccnc2c1O` (centres undefined), the EC50 in the assay on Plasmodium falciparum [1] was above 15 µM; in the assay with Plasmodium falciparum [2], 8.67 µM.
As to `COc1ccc(NC(=O)C2c3ccccc3C(=O)N(C)C2c2cccs2)cc1Cl` (centres undefined), the figures for the EC50 in the assay with Plasmodium falciparum [1] and in the assay on Plasmodium falciparum [2] were 1.35 µM and 1.07 µM, respectively.
Take `Cc1nnc(NCCN2CCOCC2)nc1O`: the EC50 with Plasmodium falciparum [1] and with Plasmodium falciparum [2] was above 15 µM each time.
For `CCCC(=O)NC(c1ccc(Cl)cc1)c1c(OC(C)=O)ccc2ccccc12` (centres undefined), the figures for the EC50 with Plasmodium falciparum [1] and in the assay on Plasmodium falciparum [2] were 9.29 µM and 6.92 µM, respectively.
The like results for `Oc1ccc(Cl)cc1Nc1nc(C(F)(F)F)nc2ccccc12` were, in that order, 0.638 µM and 1.2 µM.
The like results for `CCCS(=O)(=O)N1CCC(CO)(Cc2ccccc2C(F)(F)F)CC1` were, in that order, 2.26 µM and 3.37 µM.
As to `C=CCn1c(SCC(=O)Nc2ccccc2OC)nc2sc(C)cc2c1=O`, the EC50 came to 4.01 µM in the assay on Plasmodium falciparum [1] and 0.722 µM in the assay with Plasmodium falciparum [2].
In the case of `Cc1cc(Cn2ccnc2)c(C)c([N+](=O)[O-])c1Cn1ccnc1`, the EC50 in the assay with Plasmodium falciparum [1] and in the assay with Plasmodium falciparum [2] was above 15 µM throughout.
Take `CO/C(O)=C1\C(C)=NC2=C(C(=O)CC(c3ccc(OC)c(OC)c3)C2)C1c1cccc(Cl)c1` (centres undefined): the values for the EC50 in the assay with Plasmodium falciparum [1] and in the assay with Plasmodium falciparum [2] were 3.46 µM and 4.1 µM, respectively.
For `CCCN1C(=O)c2[nH]nc(-c3c(C)cc(C)cc3O)c2C1c1ccc(OC)cc1` (centres undefined), in that order: 2.02 µM and 3.36 µM.
For `O=C1c2ccccc2C(=O)c2cc(S(=O)(=O)N(CCO)CCO)ccc21`, in that order: 3.21 µM and 5.89 µM.
The like results for `NNC(=O)CNC(c1ccccc1)c1cc(Br)ccc1NC(=O)c1ccccc1Br` (centres undefined) were, in that order, 1.65 µM and 1.89 µM.
For the molecule `Cc1cc(C)c2c(=O)cc(C(Cl)(Cl)Cl)oc2c1`, the EC50 in the assay on Plasmodium falciparum [1] and with Plasmodium falciparum [2] was above 15 µM in each case.
For the molecule `CCCCCOc1ccc(NC2=C(N3CCCC3)C(=O)c3ccccc3C2=O)cc1`, the EC50 is 1.92 µM with Plasmodium falciparum [1] and above 15 µM in the assay on Plasmodium falciparum [2].
Consider `CCOc1cc(-c2nc(-c3ccc(OC)cc3)c(-c3ccccc3)[nH]2)ccc1O`, for which the EC50 is 2.25 µM with Plasmodium falciparum [1] and 1.48 µM in the assay on Plasmodium falciparum [2].
The like results for `Cc1sc(NC(=O)CSc2ccc(Cl)cc2)nc1-c1ccccc1` were, in that order, above 15 µM and above 15 µM.
Consider `COc1ccc(N2C(=O)/C(=C/Nc3ccccc3OC)c3ccccc3C2=O)cc1`, for which the EC50 in the assay on Plasmodium falciparum [1] and in the assay on Plasmodium falciparum [2] was above 15 µM in each case.
On to `Cc1cccc(NC2=C(N3CCCCC3)C(=O)c3ccccc3C2=O)c1`, for which the EC50 in the assay with Plasmodium falciparum [1] came to 0.181 µM; in the assay on Plasmodium falciparum [2] it was 0.0527 µM.
With `CCC(=O)N(Cc1ccccn1)c1nc2ccccc2s1`, the EC50 in the assay on Plasmodium falciparum [1] and in the assay with Plasmodium falciparum [2] was above 15 µM throughout.
Regarding `CCCCn1nnnc1NCc1cc(Cl)c(OC)c(OC)c1`, the values for the EC50 in the assay with Plasmodium falciparum [1] and with Plasmodium falciparum [2] were above 15 µM and 5.86 µM, respectively.
The like results for `COCCn1/c(=N/C(=O)c2nc3ccccc3s2)sc2cc(S(C)(=O)=O)ccc21` were, in that order, above 15 µM and above 15 µM.
On to `CC(C)(C)c1ccc2c(c1)CN(Cc1ccc(Cl)cc1)CO2`, for which the EC50 worked out at 0.0389 µM in the assay on Plasmodium falciparum [1] and 0.255 µM with Plasmodium falciparum [2].
For `CCOc1ccc2nc(C)cc(Nc3ccc4c(c3)OCCO4)c2c1`, in that order: 9.41 µM and above 15 µM.
`COc1ccc(Nc2cc(C)nc(Nc3ccc(NS(=O)(=O)c4ccc(F)cc4)cc3)n2)cc1`: the values for the EC50 in the assay on Plasmodium falciparum [1] and with Plasmodium falciparum [2] were above 15 µM and 1.55 µM, respectively.
